From the NIST ThermoML archive (doi:10.1016/j.fluid.2019.05.003)

Experiment: xn = mol fraction of the nth substance listed
Conditions: 101 kPa, Liquid; for mass density: Vibrating tube method; for viscosity: Falling or rolling sphere viscometry

C[N+]1(CCO)CCOCC1.[Br-] [N-methyl-N-(2-hydroxyethyl)morpholinium bromide] + O
Conditions	mass density [kg/m3]	viscosity [mPa·s]
323.15 K, x1 = 0.023	1066.9	–
323.15 K, x1 = 0.038	1109	–
323.15 K, x1 = 0.051	1138.2	–
323.15 K, x1 = 0.075	1184.5	–
323.15 K, x1 = 0.097	1218.1	–
323.15 K, x1 = 0.124	1250.5	–
323.15 K, x1 = 0.157	1282.8	–
323.15 K, x1 = 0.197	1313.9	–
323.15 K, x1 = 0.227	1330.6	–
328.15 K, x1 = 0.023	1064.7	0.703
328.15 K, x1 = 0.038	1106.2	0.871
328.15 K, x1 = 0.051	1135.9	0.982
328.15 K, x1 = 0.075	1181.6	1.305
328.15 K, x1 = 0.097	1215.1	1.718
328.15 K, x1 = 0.124	1247.6	2.4
328.15 K, x1 = 0.157	1279.8	3.505
328.15 K, x1 = 0.197	1310.7	6.095
328.15 K, x1 = 0.227	1327.5	8.272
333.15 K, x1 = 0.023	1062.5	0.656
333.15 K, x1 = 0.038	1103.3	0.807
333.15 K, x1 = 0.051	1133.3	0.913
333.15 K, x1 = 0.075	1178.7	1.201
333.15 K, x1 = 0.097	1212.1	1.581
333.15 K, x1 = 0.124	1244.5	2.186
333.15 K, x1 = 0.157	1276.7	3.163
333.15 K, x1 = 0.197	1307.8	5.346
333.15 K, x1 = 0.227	1324.2	7.316
338.15 K, x1 = 0.023	1060.1	0.632
338.15 K, x1 = 0.038	1101.2	0.756
338.15 K, x1 = 0.051	1130.8	0.849
338.15 K, x1 = 0.075	1175.6	1.135
338.15 K, x1 = 0.097	1209.5	1.453
338.15 K, x1 = 0.124	1241.5	2.007
338.15 K, x1 = 0.157	1273.5	2.854
338.15 K, x1 = 0.197	1304.7	4.811
338.15 K, x1 = 0.227	1321.1	6.504
343.15 K, x1 = 0.023	1057.7	0.596
343.15 K, x1 = 0.038	1098.7	0.716
343.15 K, x1 = 0.051	1128.3	0.796
343.15 K, x1 = 0.075	1173.2	1.055
343.15 K, x1 = 0.097	1206.6	1.339
343.15 K, x1 = 0.124	1238.3	1.873
343.15 K, x1 = 0.157	1270.4	2.621
343.15 K, x1 = 0.197	1301.5	4.333
343.15 K, x1 = 0.227	1317.9	5.834
348.15 K, x1 = 0.023	1055.3	0.561
348.15 K, x1 = 0.038	1096.2	0.675
348.15 K, x1 = 0.051	1125.7	0.749
348.15 K, x1 = 0.075	1170.4	0.996
348.15 K, x1 = 0.097	1203.8	1.259
348.15 K, x1 = 0.124	1235.2	1.719
348.15 K, x1 = 0.157	1267.6	2.407
348.15 K, x1 = 0.197	1298.3	3.882
348.15 K, x1 = 0.227	1315.1	5.243
